Test results from article PMC3568910, “P2X7 Receptor Activation Induces Reactive Oxygen Species Formation and Cell Death in Murine EOC13 Microglia” (Mediators of Inflammation, 2013).
Several values for one entry are separate records, joined by “and”; a condition that tells them apart may be missing. Equal entries are not always repeated. Entries after “also recorded” stand apart in the source; their conditions may differ. Where two headings read alike, the source gives them in different places.

Assays:
[1] = molecular target: T1, P2X7 (Mus musculus, UniProt Q9Z1M0); assay: Fixed-time ethidium+ uptake assay (flow cytometry) in J774 macrophage cells; type: cell-based, murine; details: for ethidium+ uptake compared to absence of nucleotide: 5 min
T1 construct: endogenous in cells; host or cells: EOC13 murine microglial cell line
T1 sequence (Q9Z1M0 1-595): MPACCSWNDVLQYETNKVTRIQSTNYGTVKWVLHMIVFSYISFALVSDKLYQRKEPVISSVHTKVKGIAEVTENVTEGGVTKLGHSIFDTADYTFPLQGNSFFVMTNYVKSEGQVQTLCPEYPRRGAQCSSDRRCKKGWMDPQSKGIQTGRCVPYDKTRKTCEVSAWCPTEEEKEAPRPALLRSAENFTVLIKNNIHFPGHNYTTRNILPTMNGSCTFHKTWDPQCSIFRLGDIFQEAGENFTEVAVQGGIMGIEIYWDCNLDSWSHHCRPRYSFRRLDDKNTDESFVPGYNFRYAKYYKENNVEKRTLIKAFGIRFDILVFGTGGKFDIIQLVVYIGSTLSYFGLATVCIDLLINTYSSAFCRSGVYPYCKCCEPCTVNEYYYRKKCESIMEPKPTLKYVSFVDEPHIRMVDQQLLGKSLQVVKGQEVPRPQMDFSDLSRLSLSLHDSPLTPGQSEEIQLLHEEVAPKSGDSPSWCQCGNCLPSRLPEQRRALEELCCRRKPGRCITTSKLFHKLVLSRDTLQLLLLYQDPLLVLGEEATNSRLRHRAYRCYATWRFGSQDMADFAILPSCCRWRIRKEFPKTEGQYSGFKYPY

[2] = molecular target: T1, P2X7; assay: Fixed-time ethidium+ uptake assay (flow cytometry) in EOC13 microglial cells; type: cell-based, murine; details: for impairment of ATP-induced ethidium+ uptake: 15 min preincubation
[3] = test system: EOC13 cells; assay: NO formation assay (DAF-FM DA, flow cytometry) in EOC13 cells; type: cell-based, murine
Source text: The medium was removed, and the cells were washed once.

[4] = test system: EOC13 cells; assay: cells; type: cell-based
Procedure: (§1) Following the 24 h incubations, cells were harvested from wells using 0.05% trypsin (5 min, 37°C) and washed once with Annexin-V binding medium (NaCl medium containing 5 mM CaCl2). Cells were then incubated with Annexin-V binding medium containing Annexin-V-Fluorescein and 7AAD at room temperature protected from light for 15 min. […] Quadrant markers were used to determine the percentage of Annexin-V^+/7AAD^−, Annexin-V^−/7AAD^+, and Annexin-V^+/7AAD^+ cells. In some experiments, cells prior to harvesting were visualised by DIC imaging to examine cell morphology, and DIC images captured as outlined in Section 2.8.

[5] = test system: EOC13 cells
[6] = test system: P2X7; design: method as in PMID 18657557; details: read-out: half maximal effective concentration (EC50) of ATP for P2X7 activation; cited from earlier work
[7] = molecular target: T1, P2X7; assay: Fixed-time YO-PRO-1 2+ uptake assay (flow cytometry) in EOC13 microglial cells; type: cell-based, murine; details: 10 μM
[8] = test system: EOC13 cells; assay: Cell viability assessed by forward and side scatter (gated viable cells); type: cell-based, murine; details: for cell viability (forward and side scatter): 10 μM; for reduction of the amount of gated viable cells: ethidium+ uptake assay
[9] = test system: EOC13 cells; assay: Cell morphology by DIC imaging; type: cell-based, murine
Procedure: as §1

[10] = test system: EOC13 cells; assay: cells; details: Mus musculus, read-out: inhibition of ATP-induced ROS formation, EOC13 cells, 40 mM NAC, 30 min preincubation, 1.4 mM ATP, NaCl medium
[11] = read-out: IC50 for impairment of 1 mM ATP-induced ethidium+ uptake, J774 cells, NaCl medium, 15 min preincubation, 1 mM ATP 5 min, 37°C
[12] = EOC13 cells, antagonist 30 μM, 1 mM ATP

With 2′(3′)-O-(4-benzoylbenzoyl) ATP [BzATP] the “ethidium+ uptake compared to absence of nucleotide” value ([1]; J774 cells, 0.1 mM BzATP) was “induced significant ethidium^+ uptake” and the “ethidium+ uptake compared to absence of nucleotide” value ([2]; EOC13 cells, 0.1 mM BzATP, 5 min) was “induce significant ethidium^+ uptake”.

In the case of `Clc1cccc(-c2nnnn2Cc2cccnc2)c1Cl` [A438079], the “inhibition of ATP-induced ethidium+ uptake” value ([1]; J774 cells, antagonist 100 μM, 1 mM ATP) is reported as “completely inhibited”, the IC50 [1, 11] is reported as 7.9 ± 0.4 µM and the “impairment of ATP-induced ethidium+ uptake” value (shortened to “impairment”) ([2]; EOC13 cells, antagonist 100 μM, 1 mM ATP) is reported as 90 ± 1%.

With `Nc1ncnc2c1ncn2[C@@H]1O[C@H](COP(=O)(O)OP(=O)(O)OP(=O)(O)O)[C@@H](O)[C@H]1O` [ATP, adenosine-5′-triphosphate] the “ethidium+ uptake compared to absence of nucleotide” value ([1]; J774 cells, 1 mM ATP) was “induced significant ethidium^+ uptake”, the “ethidium+ uptake compared to absence of nucleotide” value ([2]; EOC13 cells, 1 mM ATP, 5 min) was “induce significant ethidium^+ uptake” and the EC50 ([2]; EOC13 cells, NaCl medium, 5 min, 37°C, read-out: EC50 for induction of ethidium+ uptake) was ~130 µM and 130 µM. The “NO formation compared to absence of ATP” value ([3]; 1.4 mM ATP, 15 min, NaCl medium) was “induced significant NO formation”, the “duration of transient ATP incubation giving significant cell death” value ([4]; EOC13 cells, 2 mM ATP, then fresh medium 24 h) was 30 or 60 min but not 15 min and 30–60 but not 15 min and the “ATP concentrations giving significantly higher total cell death than absence of ATP” value ([4]; EOC13 cells, complete DMEM medium, 24 h) was 2 or 3 mM ATP but not 1 mM ATP and 2 or 3 but not 1 mM ATP. For the same compound, the “ROS formation compared to absence of ATP” value ([5]; 575 μM ATP4- (1.4 or 2 mM ATP), NaCl medium in absence and presence of 1 mM Ca2+) was “induced significant ROS formation”, the “ROS formation compared to absence of ATP” value ([5]; 1.4 mM ATP, NaCl and KCl media) was “induced significant ROS formation” and the “ROS formation compared to absence of ATP” value ([5]; 1.4 mM ATP, NaCl medium, 15 min (NAC experiment control)) was “induced significant ROS formation”. For the same compound, the “ROS formation compared to absence of ATP” value ([5]; 1.4 mM ATP, absence and presence of 100 μM EGTA) was “significant but similar amounts of ROS formation”, the “MFI of ROS formation” value ([5]; 2 mM ATP, NaCl medium with 1 mM Ca2+, 15 min, absence of ATP 5.18 ± 0.06) was 16.3 ± 0.6 and the “ATP concentrations inducing significant ROS formation” value ([5]; complete DMEM medium, 15 min) was 2 or 3 but not 1 mM ATP. For the same compound, the EC50 [6] was 100 to 300 µM.

For `O=C(CC12CC3CC(CC(C3)C1)C2)Nc1cccc2nc(NCCNCCO)ccc12` [AZ10606120], the “inhibition of ATP-induced ethidium+ uptake” value ([1]; J774 cells, antagonist 10 μM, 1 mM ATP) was “completely inhibited”, the IC50 [1, 11] was 1 ± 0.1 µM and the “inhibition of ATP-induced YO-PRO-1 2+ uptake” value ([7]; 15 min preincubation, 1 mM ATP) was “complete inhibition”. For the same compound, the “effect on basal YO-PRO-1 2+ uptake” value ([7]; absence of ATP) was “did not significantly alter”, the “inhibition of ATP-induced NO formation” value ([3]; 10 μM, 15 min preincubation, 1.4 mM ATP) was 82 ± 11% and the “effect on basal NO formation” value ([3]; 10 μM, absence of ATP) was “did not significantly alter”. The “cell viability (forward and side scatter)” value ([8]; NO assay) was “did not significantly alter”, the “cell viability (forward and side scatter)” value ([8]; ROS assay) was “did not significantly alter” and the “inhibition of ATP-induced ROS formation” value ([5]; 10 μM, 15 min preincubation, 2 mM ATP, NaCl medium with 1 mM Ca2+) was “complete inhibition; also recorded: completely impaired”. The “inhibition of ATP-induced ROS formation” value ([5]; 10 μM, 15 min preincubation, 2 mM ATP, complete DMEM medium) was “completely inhibited” and the “effect on basal ROS formation” value ([5]; 10 μM, absence of ATP) was “did not significantly alter”.

For `O=C1CSC(=O)N1C(CCc1ccncc1)COc1ccc(-c2cccc([N+](=O)[O-])c2)cc1` (centres unmarked) [AZ11645373], the “type of antagonism at the ATP concentration used” value ([1]; J774 cells, 1 mM ATP) was “partial antagonists”, the IC50 [1, 11] was 1.5 ± 0.1 µM and the “effect on basal ethidium+ uptake” value ([2]; EOC13 cells, absence of ATP, antagonist at concentration used (10-100 μM)) was “significantly altered”. For the same compound, the “impairment” value [2, 12] was 99 ± 1% and the “reduction of the amount of gated viable cells” value ([8]; 30 μM) was ~ 30%.

In the case of `CCOc1ccc(Nc2ccc(/C(=C3C=C/C(=[N+](/CC)Cc4cccc(S(=O)(=O)[O-])c4)C=C/3C)c3ccc(N(CC)Cc4cccc(S(=O)(=O)O)c4)cc3C)cc2)cc1` [BBG, Brilliant Blue G], the IC50 [1] is reported as 1.8 ± 0.2 µM, the “type of antagonism at the ATP concentration used” value ([1]; J774 cells, 1 mM ATP) is reported as “partial antagonists” and the “impairment” value [2, 12] is reported as 75 ± 2%.

In the case of `c1ccc2c(c1)[I+]c1ccccc1-2` [DPI, diphenyleneiodonium], the “cell death on preincubation” value ([5]; 5–40 μM DPI, 30 min preincubation, data not shown) is reported as “high amounts of cell death; also recorded: induced the death of EOC13 microglia”.

With `CC(=O)N[C@@H](CS)C(=O)O` [NAC, N-acetyl-L-cysteine] the inhibition at 40000 µM ([2]; P2X7, read-out: inhibition of ATP-induced ethidium+ uptake (pore formation)) was 30 ± 2%, the “effect on percentage of ATP-induced cell death” value ([4]; EOC13 cells, 40 mM NAC, 75 and 30 min preincubation followed by 15 and 60 min 2 mM ATP, respectively) was “had no effect” and the inhibition at 40000 µM ([4]; Mus musculus, read-out: inhibition of ATP-induced cell death) was 99 ± 6%. The “reduction of the amount of gated viable cells” value ([8]; incubation with 40 mM NAC and ATP together, not either compound alone) was ~ 40%, the “effect on ATP-associated morphological changes (DIC)” value ([9]; 40 mM NAC 90 min, 2 mM ATP final 45 min, then 24 h) was “prevented the morphological changes associated with ATP incubation” and the “effect on cell morphology (DIC)” value ([9]; ROS assay conditions, 40 mM NAC with or without 1.4 mM ATP) was “not altered by NAC”. The “effect on cell morphology (DIC), NAC alone” value ([9]; cell death assay conditions, 40 mM NAC 90 min, then 24 h) was “no effect on cell morphology”, the “inhibition of ATP-induced ROS formation” value ([5]; 40 mM NAC, 30 min preincubation, 1.4 mM ATP, NaCl medium) was 74% and the inhibition at 40000 µM [10] was 73.7 ± 0.3%.
